{"source": "paper PMC7582373", "about": "“Bis-Lactam Peptide [i, i+4]-Stapling with α-Methylated Thialysines” (Molecules, 2020)", "key": {"in vitro": {"assay": "in vitro", "format": "in vitro ADME", "details": "Streptomyces griseus, isolated enzyme pronase, pH 7.3", "description": "We further compared the proteolytic stability of the L-α-methyl-thialysine-stapled peptide 5 and the L-thialysine-stapled peptide 6 by employing pronase as the proteolytic enzyme preparation in a proteolysis experiment. Of note, pronase is a mixture of a variety of different proteases/peptidases and therefore has a very broad substrate specificity. […] This observed difference in the proteolytic stability of 5 and 6 is in the same direction of change with the % α-helicity of 5 and 6 (see above), which would be consistent with the notion that an enhanced % α-helicity would improve the proteolytic stability of a stapled peptide, which was also supported previously with the peptides stapled with other stapling systems such as the all-hydrocarbon-stapled peptides.\nThe following materials were obtained from commercial sources for compound synthesis/purification and the pronase digestion assay, and were used as received. Sigma-Aldrich China (Shanghai, China): N-methylmorpholine (NMM), trifluoroacetic acid (TFA), N,N-dimethylformamide (DMF), N-(allyloxycarbonyloxy)succinimide (Alloc-OSu), triethylamine, Trizma, the pronase from Streptomyces griseus; TCI Shanghai: para-phenylenediacetic acid, 2-(tert-butoxycarbonylamino)ethyl bromide, 1,8-diazabicyclo[5.4.0]undec-7-ene (DBU), L-cysteine, N-(9-fluorenylmethoxycarbonyloxy) succinimide (Fmoc-OSu), phenylsilane (PhSiH3), tetrakis(triphenylphosphine)palladium (Pd(PPh3)4); Alfa Aesar China (Shanghai, China): 2-(1H-benzotriazole-1-yl)-1,1,3,3-tetramethylaminium hexafluorophosphate (HBTU), 2-(7-Aza-1H-benzotriazole-1-yl)-1,1,3,3-tetramethyluronium hexafluorophosphate (HATU), N-hydroxybenzotriazole (HOBt), phenol, thioanisole, ethanedithiol; Honeywell China (Shanghai, China): acetonitrile, dichloromethane (DCM), methanol, ethyl acetate; Sinopharm Chemical Reagent Co., Ltd. (Shanghai, China): acetic anhydride, diethyl ether, semi-preparative thin-layer chromatography (TLC) silica gel plate (HSGF254, 20 × 20 cm, 0.4–0.5 mm); Shanghai Plus Bio-Sci & Tech Co., Ltd. (Shanghai, China): Rink amide 4-methylbenzhydrylamine (MBHA) resin; SyncoZymes Co., Ltd. (Shanghai, China): D-2-methyl-cysteine hydrochloride; Fisher Scientific Worldwide Co., Ltd. (Shanghai, China): L-2-methyl-cysteine hydrochloride.\nThis experiment followed the protocol described previously. Fifty (50) µL of an 160 μM solution of a peptide (5, 6, 7, or 8) in ddH2O was thoroughly mixed with 50 μL of an 8 ng/μL solution of pronase in 100 mM Tris•HCl (pH 7.3), and the resultant solution was incubated at 37 °C until quenched at different time points (0 min, 4 min, 7.5 min, and 15 min) with an 1.0 M solution of acetic acid in ddH2O. Twenty (20) μL of a pronase digestion solution was taken at each time point and treated immediately with 40 μL of the 1.0 M acetic acid aqueous solution, followed instantly by vigorous vortexing and centrifugation. The obtained supernatant was then injected into a C18 analytical HPLC column (0.46 × 25 cm, 5 μm), and the column was eluted at 1 mL/min with ultraviolet monitoring at 214 nm with the following gradients of ddH2O containing 0.05% (v/v) TFA (mobile phase A) and acetonitrile containing 0.05% (v/v) TFA (mobile phase B): linear increase of B from 0% to 45% in 60 min (for 5 and 6), linear increase of B from 0% to 60% in 60 min (for 7), or linear increase of B from 0% to 100% in 60 min (for 8). The integrated HPLC peak areas at different time points for a given peptide were used to estimate the percentage remaining for the peptide as the function of the digestion time."}, "circular dichroism": {"assay": "circular dichroism", "details": "water; pH ns; 25 °C; 25 and/or 50 uM"}}, "note": "*1 amine or outer side, *2 acyl side, *3 side chain or, on linkers, in order; H or OH if unused. Where a SMILES comes first, the peptide text is derived from it. Bridges are numbered along the chain shown (N, C = ends). [ ]: non-standard residue; d: D form. X1 = O=C(Cc1ccc(CC(=O)NCC[*:2])cc1)NCC[*:1]; αMeC = C[C@](N)(CS)C(=O)O"}
{"smiles": "CC[C@H](C)[C@H](NC(=O)[C@H](CCC(=O)O)NC(=O)[C@H](CO)NC(C)=O)C(=O)N[C@H](C(=O)N[C@@H](CCCCN)C(=O)N[C@@H](CCC(N)=O)C(=O)N[C@@H](CCC(=O)O)C(=O)N[C@@H](CCCCN)C(=O)N[C@H]1CSCCNC(=O)Cc2ccc(cc2)CC(=O)NCCSC[C@@H](C(=O)N[C@@H](Cc2c[nH]cn2)C(=O)N[C@@H](CCCNC(=N)N)C(=O)N[C@@H](Cc2c[nH]cn2)C(=O)N[C@@H](Cc2ccc(O)cc2)C(=O)N[C@@H](CS)C(N)=O)NC(=O)[C@H](Cc2c[nH]c3ccccc23)NC(=O)[C@H](CC(C)C)NC(=O)[C@H](Cc2ccccc2)NC1=O)[C@@H](C)O", "note": "[compound 6] (Ac-SEITKQEKCFLWCHRHYC-NH2; linker 9-13 via X1)", "values": [{"measurement": "remaining at 4 min, 80 µM", "setting": "in vitro", "value": "~11.1", "unit": "%"}, {"measurement": "remaining at 0.125 h, 80 µM", "setting": "in vitro", "value": "~4.3", "unit": "%"}, {"measurement": "helicity", "setting": "circular dichroism", "value": 4.4, "unit": "%"}]}
{"smiles": "CC[C@H](C)[C@H](NC(=O)[C@H](CCC(=O)O)NC(=O)[C@H](CO)NC(C)=O)C(=O)N[C@H](C(=O)N[C@@H](CCCCN)C(=O)N[C@@H](CCC(N)=O)C(=O)N[C@@H](CCC(=O)O)C(=O)N[C@@H](CCCCN)C(=O)N[C@@]1(C)CSCCNC(=O)Cc2ccc(cc2)CC(=O)NCCSC[C@@](C)(C(=O)N[C@@H](Cc2c[nH]cn2)C(=O)N[C@@H](CCCNC(=N)N)C(=O)N[C@@H](Cc2c[nH]cn2)C(=O)N[C@@H](Cc2ccc(O)cc2)C(=O)N[C@@H](CS)C(N)=O)NC(=O)[C@H](Cc2c[nH]c3ccccc23)NC(=O)[C@H](CC(C)C)NC(=O)[C@H](Cc2ccccc2)NC1=O)[C@@H](C)O", "note": "[compound 5]", "values": [{"measurement": "remaining at 4 min, 80 µM", "setting": "in vitro", "value": "~19.2", "unit": "%"}, {"measurement": "remaining at 0.125 h, 80 µM", "setting": "in vitro", "value": "~5.6", "unit": "%"}, {"measurement": "helicity", "setting": "circular dichroism", "value": 10.4, "unit": "%"}]}
{"smiles": "CC[C@H](C)[C@H](NC(=O)[C@H](CCC(=O)O)NC(=O)[C@H](CO)NC(C)=O)C(=O)N[C@H](C(=O)N[C@@H](CCCCN)C(=O)N[C@@H](CCC(N)=O)C(=O)N[C@@H](CCC(=O)O)C(=O)N[C@@H](CCCCN)C(=O)N[C@]1(C)CSCCNC(=O)Cc2ccc(cc2)CC(=O)NCCSC[C@](C)(C(=O)N[C@@H](Cc2c[nH]cn2)C(=O)N[C@@H](CCCNC(=N)N)C(=O)N[C@@H](Cc2c[nH]cn2)C(=O)N[C@@H](Cc2ccc(O)cc2)C(=O)N[C@@H](CS)C(N)=O)NC(=O)[C@H](Cc2c[nH]c3ccccc23)NC(=O)[C@H](CC(C)C)NC(=O)[C@H](Cc2ccccc2)NC1=O)[C@@H](C)O", "values": [{"measurement": "helicity", "setting": "circular dichroism", "value": 10.4, "unit": "%"}]}
{"smiles": "CC(=O)N[C@@H](CCC(=O)O)C(=O)N[C@@H](Cc1c[nH]c2ccccc12)C(=O)N[C@@H](C)C(=O)N[C@@H](CCC(=O)O)C(=O)N[C@H](C(=O)N[C@@H](C)C(=O)N[C@@H](C)C(=O)N[C@H]1CSCCNC(=O)Cc2ccc(cc2)CC(=O)NCCSC[C@@H](C(=O)N[C@@H](C)C(=O)N[C@@H](Cc2c[nH]cn2)C(=O)N[C@@H](C)C(N)=O)NC(=O)[C@H](CC(C)C)NC(=O)[C@H](Cc2ccccc2)NC(=O)[C@H](CCCCN)NC1=O)[C@@H](C)O", "note": "[compound 8] (Ac-EWAETAACKFLCAHA-NH2; linker 8-12 via X1)", "values": [{"measurement": "remaining at 4 min, 80 µM", "setting": "in vitro", "value": "~48.9", "unit": "%"}, {"measurement": "remaining at 0.125 h, 80 µM", "setting": "in vitro", "value": "~35.7", "unit": "%"}, {"measurement": "remaining at 0.25 h, 80 µM", "setting": "in vitro", "value": "~21.6", "unit": "%"}, {"measurement": "helicity", "setting": "circular dichroism", "value": 7.9, "unit": "%"}]}
{"smiles": "CC(=O)N[C@@H](CCC(=O)O)C(=O)N[C@@H](Cc1c[nH]c2ccccc12)C(=O)N[C@@H](C)C(=O)N[C@@H](CCC(=O)O)C(=O)N[C@H](C(=O)N[C@@H](C)C(=O)N[C@@H](C)C(=O)N[C@@]1(C)CSCCNC(=O)Cc2ccc(cc2)CC(=O)NCCSC[C@@](C)(C(=O)N[C@@H](C)C(=O)N[C@@H](Cc2c[nH]cn2)C(=O)N[C@@H](C)C(N)=O)NC(=O)[C@H](CC(C)C)NC(=O)[C@H](Cc2ccccc2)NC(=O)[C@H](CCCCN)NC1=O)[C@@H](C)O", "note": "[compound 7] (Ac-EWAETAA[αMeC]KFL[αMeC]AHA-NH2; linker 8-12 via X1)", "values": [{"measurement": "remaining at 4 min, 80 µM", "setting": "in vitro", "value": "~96.6", "unit": "%"}, {"measurement": "remaining at 0.125 h, 80 µM", "setting": "in vitro", "value": "~93.3", "unit": "%"}, {"measurement": "remaining at 0.25 h, 80 µM", "setting": "in vitro", "value": "~81.3", "unit": "%"}, {"measurement": "helicity", "setting": "circular dichroism", "value": 13.5, "unit": "%"}]}
{"smiles": "CC[C@H](C)[C@H](NC(=O)[C@H](CCC(=O)O)NC(=O)[C@H](CO)NC(C)=O)C(=O)N[C@H](C(=O)N[C@@H](CCCCN)C(=O)N[C@@H](CCC(N)=O)C(=O)N[C@@H](CCC(=O)O)C(=O)N[C@@H](CCCCN)C(=O)N[C@@]1(C)CSCCNC(=O)Cc2ccc(cc2)CC(=O)NCCSC[C@](C)(C(=O)N[C@@H](Cc2c[nH]cn2)C(=O)N[C@@H](CCCNC(=N)N)C(=O)N[C@@H](Cc2c[nH]cn2)C(=O)N[C@@H](Cc2ccc(O)cc2)C(=O)N[C@@H](CS)C(N)=O)NC(=O)[C@H](Cc2c[nH]c3ccccc23)NC(=O)[C@H](CC(C)C)NC(=O)[C@H](Cc2ccccc2)NC1=O)[C@@H](C)O", "values": [{"measurement": "helicity", "setting": "circular dichroism", "value": 11.8, "unit": "%"}]}
{"smiles": "CC[C@H](C)[C@H](NC(=O)[C@H](CCC(=O)O)NC(=O)[C@H](CO)NC(C)=O)C(=O)N[C@H](C(=O)N[C@@H](CCCCN)C(=O)N[C@@H](CCC(N)=O)C(=O)N[C@@H](CCC(=O)O)C(=O)N[C@@H](CCCCN)C(=O)N[C@]1(C)CSCCNC(=O)Cc2ccc(cc2)CC(=O)NCCSC[C@@](C)(C(=O)N[C@@H](Cc2c[nH]cn2)C(=O)N[C@@H](CCCNC(=N)N)C(=O)N[C@@H](Cc2c[nH]cn2)C(=O)N[C@@H](Cc2ccc(O)cc2)C(=O)N[C@@H](CS)C(N)=O)NC(=O)[C@H](Cc2c[nH]c3ccccc23)NC(=O)[C@H](CC(C)C)NC(=O)[C@H](Cc2ccccc2)NC1=O)[C@@H](C)O", "values": [{"measurement": "helicity", "setting": "circular dichroism", "value": 11.1, "unit": "%"}]}
